{
  "source": "ChEMBL document CHEMBL4680122",
  "about": "“Design, synthesis and biological evaluation of new Axl kinase inhibitors containing 1,3,4-oxadiazole acetamide moiety as novel linker” (Eur J Med Chem, 2020)",
  "key": {"[1]": {"biological_target": "Aurora kinase B (Homo sapiens) (UniProt Q96GD4)", "sequence (Q96GD4 whole entry)": "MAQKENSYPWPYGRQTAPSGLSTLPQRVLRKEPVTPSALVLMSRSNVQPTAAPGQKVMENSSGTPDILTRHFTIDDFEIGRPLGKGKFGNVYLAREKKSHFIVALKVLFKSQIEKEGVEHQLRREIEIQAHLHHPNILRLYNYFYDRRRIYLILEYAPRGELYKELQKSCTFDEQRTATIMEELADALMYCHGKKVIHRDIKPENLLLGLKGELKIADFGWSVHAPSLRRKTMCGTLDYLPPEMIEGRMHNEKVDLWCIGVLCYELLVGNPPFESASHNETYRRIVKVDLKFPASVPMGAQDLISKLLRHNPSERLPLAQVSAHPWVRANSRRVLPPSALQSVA", "assay": "Inhibition of Aurora-B (unknown origin) at 200 nM relative to control"}, "[2]": {"biological_target": "Vascular endothelial growth factor receptor 2 (Homo sapiens, UniProt P35968)", "sequence (P35968 whole entry, the tested form may be a part)": "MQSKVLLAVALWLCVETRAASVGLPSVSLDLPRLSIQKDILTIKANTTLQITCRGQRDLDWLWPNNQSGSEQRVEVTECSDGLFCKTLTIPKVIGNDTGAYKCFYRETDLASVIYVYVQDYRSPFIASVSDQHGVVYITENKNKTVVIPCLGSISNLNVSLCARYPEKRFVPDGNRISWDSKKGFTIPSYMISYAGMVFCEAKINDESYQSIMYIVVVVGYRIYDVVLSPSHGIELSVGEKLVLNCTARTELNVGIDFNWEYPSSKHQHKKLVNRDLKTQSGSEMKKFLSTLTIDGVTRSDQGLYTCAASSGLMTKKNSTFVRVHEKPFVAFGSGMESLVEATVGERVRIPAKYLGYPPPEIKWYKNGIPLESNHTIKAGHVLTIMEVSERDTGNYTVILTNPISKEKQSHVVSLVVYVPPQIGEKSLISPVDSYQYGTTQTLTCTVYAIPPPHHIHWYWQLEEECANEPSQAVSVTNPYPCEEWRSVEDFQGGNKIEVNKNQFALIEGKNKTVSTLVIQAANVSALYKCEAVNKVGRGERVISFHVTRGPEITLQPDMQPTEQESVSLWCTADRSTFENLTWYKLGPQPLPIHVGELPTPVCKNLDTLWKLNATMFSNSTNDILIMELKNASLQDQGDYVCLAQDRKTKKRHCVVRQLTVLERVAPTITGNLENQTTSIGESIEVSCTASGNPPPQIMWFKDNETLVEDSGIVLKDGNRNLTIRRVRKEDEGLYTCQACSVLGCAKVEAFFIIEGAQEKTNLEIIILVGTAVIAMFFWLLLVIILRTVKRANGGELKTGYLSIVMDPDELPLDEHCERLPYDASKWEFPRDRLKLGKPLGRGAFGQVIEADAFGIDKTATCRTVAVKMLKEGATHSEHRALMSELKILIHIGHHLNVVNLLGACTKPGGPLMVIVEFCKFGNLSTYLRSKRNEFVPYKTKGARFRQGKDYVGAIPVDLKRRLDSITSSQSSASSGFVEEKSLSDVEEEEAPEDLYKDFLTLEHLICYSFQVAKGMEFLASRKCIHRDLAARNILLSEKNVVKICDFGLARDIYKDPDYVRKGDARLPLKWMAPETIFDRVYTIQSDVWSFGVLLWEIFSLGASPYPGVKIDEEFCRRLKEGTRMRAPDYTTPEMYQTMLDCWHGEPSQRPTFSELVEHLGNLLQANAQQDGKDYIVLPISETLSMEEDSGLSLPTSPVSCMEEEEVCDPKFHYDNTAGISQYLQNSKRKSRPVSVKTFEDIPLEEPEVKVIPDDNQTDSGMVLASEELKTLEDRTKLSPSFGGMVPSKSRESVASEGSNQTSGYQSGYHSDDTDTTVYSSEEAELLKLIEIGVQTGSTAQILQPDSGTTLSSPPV", "assay": "Inhibition of human N-terminal GST-fused KDR cytoplasmic domain (790 to 1356 residues) expressed in baculovirus expression system using CSKtide as substrate measured after 1 hr by mobility shift assay"}, "[3]": {"biological_target": "Hepatocyte growth factor receptor (Homo sapiens, UniProt P08581)", "sequence (P08581 whole entry, the tested form may be a part)": "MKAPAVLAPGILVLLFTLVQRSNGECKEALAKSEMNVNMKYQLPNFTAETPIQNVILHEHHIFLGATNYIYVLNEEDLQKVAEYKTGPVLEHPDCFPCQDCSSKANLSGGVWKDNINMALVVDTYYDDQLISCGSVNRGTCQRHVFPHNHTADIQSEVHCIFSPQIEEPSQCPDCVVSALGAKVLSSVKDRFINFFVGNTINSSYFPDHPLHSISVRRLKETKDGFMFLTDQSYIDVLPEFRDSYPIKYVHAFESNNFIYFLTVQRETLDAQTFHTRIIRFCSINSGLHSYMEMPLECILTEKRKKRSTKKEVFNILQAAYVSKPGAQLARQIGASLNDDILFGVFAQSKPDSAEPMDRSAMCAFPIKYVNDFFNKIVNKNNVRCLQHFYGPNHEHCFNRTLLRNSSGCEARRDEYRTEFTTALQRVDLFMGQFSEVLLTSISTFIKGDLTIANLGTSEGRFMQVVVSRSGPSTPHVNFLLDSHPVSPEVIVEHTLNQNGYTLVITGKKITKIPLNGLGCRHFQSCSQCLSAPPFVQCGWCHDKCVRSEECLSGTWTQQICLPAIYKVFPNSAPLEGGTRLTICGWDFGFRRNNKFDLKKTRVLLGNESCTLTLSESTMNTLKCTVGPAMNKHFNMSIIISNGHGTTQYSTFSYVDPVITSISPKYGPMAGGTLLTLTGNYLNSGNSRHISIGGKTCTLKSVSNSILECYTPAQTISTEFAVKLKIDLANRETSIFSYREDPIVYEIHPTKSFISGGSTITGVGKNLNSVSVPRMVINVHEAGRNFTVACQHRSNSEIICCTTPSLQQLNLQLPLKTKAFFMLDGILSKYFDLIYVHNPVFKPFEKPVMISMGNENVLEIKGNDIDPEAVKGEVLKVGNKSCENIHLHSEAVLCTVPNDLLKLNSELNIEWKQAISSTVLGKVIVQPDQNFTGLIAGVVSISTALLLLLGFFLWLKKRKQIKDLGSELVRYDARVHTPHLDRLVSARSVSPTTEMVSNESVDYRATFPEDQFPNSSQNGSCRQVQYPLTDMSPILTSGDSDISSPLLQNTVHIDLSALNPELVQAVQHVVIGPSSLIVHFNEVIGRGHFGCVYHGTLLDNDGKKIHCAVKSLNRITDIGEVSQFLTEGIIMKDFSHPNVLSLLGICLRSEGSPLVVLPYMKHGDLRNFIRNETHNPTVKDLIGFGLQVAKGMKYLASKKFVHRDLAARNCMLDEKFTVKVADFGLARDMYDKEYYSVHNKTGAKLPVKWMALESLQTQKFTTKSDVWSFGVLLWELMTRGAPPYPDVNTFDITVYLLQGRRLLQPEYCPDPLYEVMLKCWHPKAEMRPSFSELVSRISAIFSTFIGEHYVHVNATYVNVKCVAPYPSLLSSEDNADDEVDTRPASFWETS", "assay": "Inhibition of human N-terminal GST-fused c-MET cytoplasmic domain (956 to 1390 residues) expressed in baculovirus expression system using Srctide as substrate measured after 1 hr by mobility shift assay"}, "[4]": {"biological_target": "T1, Receptor-type tyrosine-protein kinase FLT3 (Homo sapiens, UniProt P36888)", "T1 sequence (P36888 whole entry)": "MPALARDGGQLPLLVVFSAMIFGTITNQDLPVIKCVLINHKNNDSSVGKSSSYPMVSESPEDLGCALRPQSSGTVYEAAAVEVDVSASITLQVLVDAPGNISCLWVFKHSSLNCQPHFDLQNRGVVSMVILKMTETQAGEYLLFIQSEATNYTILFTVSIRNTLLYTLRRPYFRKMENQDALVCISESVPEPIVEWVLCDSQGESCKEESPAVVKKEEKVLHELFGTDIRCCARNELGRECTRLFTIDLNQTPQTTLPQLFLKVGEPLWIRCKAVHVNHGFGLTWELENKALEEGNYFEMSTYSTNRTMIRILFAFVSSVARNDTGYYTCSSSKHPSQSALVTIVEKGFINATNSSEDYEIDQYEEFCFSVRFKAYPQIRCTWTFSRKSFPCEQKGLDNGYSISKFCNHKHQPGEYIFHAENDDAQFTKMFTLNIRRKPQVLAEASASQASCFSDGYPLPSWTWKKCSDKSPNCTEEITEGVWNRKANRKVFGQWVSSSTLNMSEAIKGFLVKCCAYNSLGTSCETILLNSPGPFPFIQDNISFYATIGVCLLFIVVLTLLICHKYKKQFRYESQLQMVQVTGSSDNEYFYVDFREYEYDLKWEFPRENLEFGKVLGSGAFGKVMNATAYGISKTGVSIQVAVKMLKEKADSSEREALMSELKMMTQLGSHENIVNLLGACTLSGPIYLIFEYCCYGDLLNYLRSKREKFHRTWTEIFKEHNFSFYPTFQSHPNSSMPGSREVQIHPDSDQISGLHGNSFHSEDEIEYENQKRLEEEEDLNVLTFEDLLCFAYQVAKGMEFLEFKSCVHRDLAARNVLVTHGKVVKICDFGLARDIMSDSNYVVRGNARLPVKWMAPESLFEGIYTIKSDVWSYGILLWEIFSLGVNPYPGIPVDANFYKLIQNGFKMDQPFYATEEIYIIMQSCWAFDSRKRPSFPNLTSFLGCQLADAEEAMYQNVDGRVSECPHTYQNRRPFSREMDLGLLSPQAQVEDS", "assay": "Inhibition of human N-terminal GST-fused FLT3 cytoplasmic domain (564 to 993 residues) expressed in baculovirus expression system using Srctide as substrate measured after 1 hr by mobility shift assay"}, "[5]": {"biological_target": "Mast/stem cell growth factor receptor Kit (Homo sapiens, UniProt P10721)", "sequence (P10721 whole entry, the tested form may be a part)": "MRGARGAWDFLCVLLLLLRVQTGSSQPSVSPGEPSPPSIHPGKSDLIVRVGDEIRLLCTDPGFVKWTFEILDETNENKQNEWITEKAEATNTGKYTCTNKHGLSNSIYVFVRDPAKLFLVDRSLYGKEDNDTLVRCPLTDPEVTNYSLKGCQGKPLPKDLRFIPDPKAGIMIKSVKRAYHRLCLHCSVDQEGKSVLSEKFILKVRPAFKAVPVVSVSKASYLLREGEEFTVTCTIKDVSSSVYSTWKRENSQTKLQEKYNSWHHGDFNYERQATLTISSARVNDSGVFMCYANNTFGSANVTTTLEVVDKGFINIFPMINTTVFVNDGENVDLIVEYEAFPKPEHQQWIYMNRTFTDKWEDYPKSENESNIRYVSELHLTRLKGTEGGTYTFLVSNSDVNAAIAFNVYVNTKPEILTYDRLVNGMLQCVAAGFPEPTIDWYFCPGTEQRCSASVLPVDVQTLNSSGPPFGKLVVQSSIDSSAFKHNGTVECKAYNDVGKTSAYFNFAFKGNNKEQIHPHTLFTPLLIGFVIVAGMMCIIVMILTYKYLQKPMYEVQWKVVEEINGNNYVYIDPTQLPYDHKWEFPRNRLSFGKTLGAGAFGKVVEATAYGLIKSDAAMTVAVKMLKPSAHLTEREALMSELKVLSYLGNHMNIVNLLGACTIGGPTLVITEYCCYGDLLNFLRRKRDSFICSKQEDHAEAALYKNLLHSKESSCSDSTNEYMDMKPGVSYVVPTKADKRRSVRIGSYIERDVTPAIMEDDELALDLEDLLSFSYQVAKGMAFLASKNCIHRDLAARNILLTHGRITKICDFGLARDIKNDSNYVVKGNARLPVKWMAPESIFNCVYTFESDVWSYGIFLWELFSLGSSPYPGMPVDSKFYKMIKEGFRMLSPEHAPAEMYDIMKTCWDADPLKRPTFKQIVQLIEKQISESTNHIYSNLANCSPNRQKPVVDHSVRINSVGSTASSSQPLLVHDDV", "assay": "Inhibition of human N-terminal GST-tagged c-Kit cytoplasmic domain (544 to end residues) expressed in baculovirus infected Sf21 insect cells using peptide substrate measured after 1 hr by mobility shift assay"}, "A549": {"test_system": "A549", "assay": "Potency index, ratio of foretinib IC50 to test compound IC50 for antiproliferative activity against human A549 cells", "format": "functional"}, "MCF7": {"test_system": "MCF7", "assay": "Antiproliferative activity against human MCF7 cells measured after 72 hrs by MTT assay", "format": "functional, cell-based", "details": "MCF7, 72 h"}, "[6]": {"biological_target": "T2, Tyrosine-protein kinase Mer (Homo sapiens, UniProt Q12866)", "T2 sequence (Q12866 whole entry)": "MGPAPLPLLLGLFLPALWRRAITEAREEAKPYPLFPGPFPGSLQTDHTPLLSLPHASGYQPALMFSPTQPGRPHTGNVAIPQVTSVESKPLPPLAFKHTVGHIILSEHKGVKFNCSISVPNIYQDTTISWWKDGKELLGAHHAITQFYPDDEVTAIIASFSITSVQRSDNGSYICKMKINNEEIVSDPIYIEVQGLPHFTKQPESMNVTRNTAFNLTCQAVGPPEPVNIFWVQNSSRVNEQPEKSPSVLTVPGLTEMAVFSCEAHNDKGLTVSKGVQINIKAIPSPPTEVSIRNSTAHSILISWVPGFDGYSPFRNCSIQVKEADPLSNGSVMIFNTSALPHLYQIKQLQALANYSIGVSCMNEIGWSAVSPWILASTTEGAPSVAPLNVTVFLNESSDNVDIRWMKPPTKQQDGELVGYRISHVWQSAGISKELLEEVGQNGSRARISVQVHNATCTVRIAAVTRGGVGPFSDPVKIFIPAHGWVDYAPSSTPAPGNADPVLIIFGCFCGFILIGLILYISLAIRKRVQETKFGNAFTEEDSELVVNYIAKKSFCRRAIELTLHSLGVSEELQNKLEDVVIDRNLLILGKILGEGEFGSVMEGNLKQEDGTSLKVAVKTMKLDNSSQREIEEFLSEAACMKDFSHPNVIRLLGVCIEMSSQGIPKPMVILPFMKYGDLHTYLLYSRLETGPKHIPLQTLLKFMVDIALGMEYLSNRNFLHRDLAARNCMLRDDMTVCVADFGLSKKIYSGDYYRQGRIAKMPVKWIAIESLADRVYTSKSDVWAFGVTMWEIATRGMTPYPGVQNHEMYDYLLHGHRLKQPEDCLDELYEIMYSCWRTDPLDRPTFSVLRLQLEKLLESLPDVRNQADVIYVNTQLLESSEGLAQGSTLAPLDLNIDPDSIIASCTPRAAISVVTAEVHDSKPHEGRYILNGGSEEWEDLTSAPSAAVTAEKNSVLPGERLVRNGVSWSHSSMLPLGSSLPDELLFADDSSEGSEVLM", "assay": "Inhibition of MER (unknown origin)"}},
  "data": [
    {"smiles": "COc1cc2c(Oc3ccc(NC(=O)C4(c5nnc(-c6ccc(F)cc6)o5)CC4)cc3F)ccnc2cc1OCCCN1CCCCC1", "values": [
      {"measurement": "inhibition", "setting": "[1]", "result": "> 80", "unit": "%"},
      {"measurement": "IC50", "setting": "[2]", "result": 81, "unit": "nM"},
      {"measurement": "IC50", "setting": "[3]", "result": 71, "unit": "nM"},
      {"measurement": "IC50", "setting": "[4]", "result": 103, "unit": "nM"},
      {"measurement": "IC50", "setting": "[5]", "result": 63, "unit": "nM"},
      {"measurement": "Ratio IC50", "setting": "A549", "result": 1.9},
      {"measurement": "IC50", "setting": "MCF7", "result": 1010, "unit": "nM"},
      {"measurement": "IC50", "setting": "[6]", "result": "> 200", "unit": "nM"}
    ]}
  ]
}
